Data published in US11414431B2, “Substituted pyrazolo[1,5-a]pyrimidines as TYK2 inhibitors” (Nimbus Lakshmi, Inc., priority 2018, dated 2022).

Columns and labels:
[1] = test system: IL-12 induced STAT4 phosphorlyation mediated by TYK2/JAK2; assay: IL-12 Induced pSTAT4 in Human PBMC; assay type: cell-based; settings: 1.7 ng/mL IL-12 for 30 minutes
Summary of the method: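 pSTAT4 and total STAT4 quantified by MSD in lysates of cryopreserved human PBMC after 30-minute stimulation with 1.7 ng/mL IL-12 (final). Compound was added 1 hr beforehand at 37° C, 0.1% DMSO final.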

[2] = target: human TYK2 (JH2domain-pseudokinase) (Homo sapiens (Human), UniProt P29597); assay: TYK2 JH2 Domain Binding Assay (KINOMEscan); settings: 11-point 3-fold dilution, top concentration 30,000 nM, duplicate; read-out: hTYK2_JH2_Binding (Kd; nM)
Summary of the method: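 KINOMEscan competition binding: HEK293-expressed NFkB-fused TYK2 JH2 (G556–D888), DNA-tagged, against immobilized ligand beads, 1 h shaking at room temperature, 0.9% DMSO. Bound kinase quantified by qPCR.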

Chain of human TYK2 (JH2domain-pseudokinase) (P29597 556-888): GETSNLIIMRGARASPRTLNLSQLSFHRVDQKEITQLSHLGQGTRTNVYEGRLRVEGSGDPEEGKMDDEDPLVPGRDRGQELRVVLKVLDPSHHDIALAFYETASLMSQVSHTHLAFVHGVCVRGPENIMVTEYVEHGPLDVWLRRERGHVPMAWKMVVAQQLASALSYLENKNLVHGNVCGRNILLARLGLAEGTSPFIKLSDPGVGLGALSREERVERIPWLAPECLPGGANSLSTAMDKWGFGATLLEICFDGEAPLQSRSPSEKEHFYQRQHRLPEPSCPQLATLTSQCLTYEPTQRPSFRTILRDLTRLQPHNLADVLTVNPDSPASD

IC50 [1]	Kd [2]	IC50 ([1]; 0.5 h)	SMILES
< 0.1 µM	< 0.2 nM		CNc1cc(Nc2cccn([C@@H]3C[C@H]3F)c2=O)nc2c(C(=O)N[C@@H]3CC[C@H]3OC)cnn12 [Compound I-53, 5-((1-((1R,2R)-2-Fluorocyclopropyl)-2-oxo-1,2-dihydropyridin-3-γ1)amino)-N-((1R,2R)-2-methoxycyclobutyl)-7-(methylamino)pyrazolo[1,5-a]pyrimidine-3-carboxamide]
< 0.1 µM	< 0.2 nM		CNc1cc(Nc2cccn(C3COC3)c2=O)nc2c(C(=O)NC3CC[C@@H]3F)cnn12 (some centres unmarked) [Compound I-163]
< 0.1 µM	< 0.2 nM		O=C(NC1CC[C@@H]1F)c1cnn2c3c(c(-c4cn(C5COC5)c5ncccc45)nc12)OCCN3 (some centres unmarked) [Compound I-774]
< 0.1 µM	< 0.2 nM		CNc1ccc(-c2cc(NC)n3ncc(C(=O)NC4CC[C@@H]4OC)c3n2)n2ccnc12 (some centres unmarked) [Compound I-488]
< 0.1 µM	< 0.2 nM		CNc1cc(Nc2cccn([C@H]3[C@@H]4COC[C@@H]43)c2=O)nc2c(C(=O)N[C@H]3CCC3(F)F)cnn12 [Compound I-307]
< 0.1 µM	< 0.2 nM		CNc1cc(Nc2cccn([C@H]3C[C@H](OC)C3)c2=O)nc2c(C(=O)NC3CCC3)cnn12 [Compound I-141]
0.1 to 0.5 µM	> 10 nM		CO[C@@H]1CC[C@H]1NC(=O)c1cnn2c(N)cc(Nc3cccn(-c4ccccn4)c3=O)nc12 [Compound I-247]
< 0.1 µM	< 0.2 nM		O=C(NC1CCC1(F)F)c1cnn2c3c(c(Nc4cccn([C@H]5[C@@H]6COC[C@@H]65)c4=O)nc12)OCCN3 (some centres unmarked) [Compound I-768]
< 0.1 µM	< 0.2 nM		O=C(N[C@@H]1CCC1(F)F)c1cnn2c3c(c(-c4cn(C5COC5)c5ncccc45)nc12)OCCN3 [Compound I-772]
	< 0.2 nM	< 0.1 µM	CNc1cc(Nc2cccn([C@H]3C[C@@H]3F)c2=O)nc2c(C(=O)N[C@H]3CC[C@@H]3OC)cnn12 [Compound I-49, 5-((1-((1S,2S)-2-Fluorocyclopropyl)-2-oxo-1,2-dihydropyridin-3-yl)amino)-N-((1S,2S)-2-methoxycyclobutyl)-7-(methylamino)pyrazolo[1,5-a]pyrimidine-3-carboxamide]
< 0.1 µM	< 0.2 nM		CNc1cc(Nc2cccn(-c3ocnc3C)c2=O)nc2c(C(=O)NC3CC[C@@H]3F)cnn12 (some centres unmarked) [Compound I-185]
< 0.1 µM	< 0.2 nM		CNc1cc(-c2cn(C3CN(C)C3)c3ncccc23)nc2c(C(=O)NC3CC[C@@H]3OC)cnn12 (some centres unmarked) [Compound I-608]
	< 0.2 nM	< 0.1 µM	CNc1cc(Nc2cccn([C@H]3C[C@H](OC)C3)c2=O)nc2c(C(=O)NC3CC3)cnn12 [Compound I-4, N-Cyclopropyl-5-((1-((1r,3r)-3-methoxycyclobutyl)-2-oxo-1,2-dihydropyridin-3-yl)amino)-7-(methylamino)pyrazolo[1,5-a]pyrimidine-3-carboxamide]
< 0.1 µM	< 0.2 nM		CNc1cc(Nc2cccn(C3COC3)c2=O)nc2c(C(=O)NC3CC[C@H]3F)cnn12 (some centres unmarked) [Compound I-160]
< 0.1 µM	< 0.2 nM		CNc1cc(Nc2cccn(C(C)C)c2=O)nc2c(C(=O)N[C@@H]3CC[C@@]3(C)O)cnn12 [Compound I-341]
< 0.1 µM	< 0.2 nM		O=C(N[C@H]1CC[C@@H]1F)c1cnn2c3c(c(-c4cn([C@H]5C[C@H](O)C5)c5ncccc45)nc12)OCCN3 [Compound I-757]
< 0.1 µM	< 0.2 nM		CNc1cc(-c2cnc3n([C@H]4COC[C@@H]4O)cccc2-3)nc2c(C(=O)N[C@@H]3C[C@@H]3F)cnn12 [Compound I-820]
< 0.1 µM	< 0.2 nM		CNc1cc(Nc2cccn(C3COC3)c2=O)nc2c(C(=O)N[C@@H]3CC[C@@H]3F)cnn12 [Compound I-162]
< 0.1 µM	< 0.2 nM		CNc1cc(Nc2cccn(-c3ocnc3C)c2=O)nc2c(C(=O)N[C@H]3CC[C@@H]3F)cnn12 [Compound I-186]
< 0.1 µM	< 0.2 nM		O=C(NC1CC[C@@H]1F)c1cnn2c3c(c(-c4cn([C@H]5C[C@H](O)C5)c5ncccc45)nc12)OCCN3 (some centres unmarked) [Compound I-756]
	< 0.2 nM	< 0.1 µM	CNc1cc(Nc2cccn([C@H]3C[C@H](OC)C3)c2=O)nc2c(C(=O)N[C@@H]3C[C@@H]3F)cnn12 [Compound I-8, N-((1R,2S)-2-Fluorocyclopropyl)-5-((1-((1r,3R)-3-methoxycyclobutyl)-2-oxo-1,2-dihydropyridin-3-yl)amino)-7-(methylamino)pyrazolo[5-a]pyrimidine-3-carboxamide]
< 0.1 µM	< 0.2 nM		CNc1cc(-c2cn(C3COC3)c3ncccc23)nc2c(C(=O)NC3CC[C@@H]3F)cnn12 (some centres unmarked) [Compound I-507]

IC50 [1]	Kd [2]	IC50 ([1]; 0.5 h)	SMILES
0.1 to 0.5 µM	< 0.2 nM		CO[C@H]1CC[C@@H]1NC(=O)c1cnn2c(N)cc(Nc3cccn(-c4ccccn4)c3=O)nc12 [Compound I-246]
	< 0.2 nM	< 0.1 µM	CNc1cc(-c2cnc3n(C4CCN(CCOC)CC4)cccc2-3)nc2c(C(=O)N[C@H]3CC[C@@H]3OC)cnn12 [Compound I-1020, N-((1S,2S)-2-methoxycyclobutyl)-5-(7-(1-(2-methoxyethyl)piperidin-4-yl)-7H-pyrrolo[2,3-b]pyridin-3-yl)-7-(methylamino)pyrazolo[1,5-a]pyrimidine-3-carboxamide]
> 1 µM	< 0.2 nM		CNc1cc(-c2cnc3n(CC(=O)N4CC5(COC5)C4)cccc2-3)nc2c(C(=O)N[C@H]3CC[C@@H]3OC)cnn12 [Compound I-1012]
< 0.1 µM	< 0.2 nM		CNc1cc(-c2cnc3n([C@H]4CCOC[C@@H]4O)cccc2-3)nc2c(C(=O)N[C@@H]3C[C@@H]3F)cnn12 [Compound I-825]
	< 0.2 nM	< 0.1 µM	O=C(NC1CCC1(F)F)c1cnn2c3c(c(-c4cn(C5COC5)c5ncccc45)nc12)OCCN3 (centres unmarked) [Compound I-771, N-(2,2-Difluorocyclobutyl)-5-(1-(oxetan-3-yl)-1H-pyrrolo[2,3-b]pyridin-3-yl)-2,3-dihydro-1H-pyrazolo[5′,1′:2,3]pyrimido[5,4-b][1,4]oxazine-7-carboxamide]
	< 0.2 nM	< 0.1 µM	CNc1cc(-c2cnc3n([C@@H]4CCOC[C@H]4O)cccc2-3)nc2c(C(=O)NC3CC3)cnn12 [Compound I-818, N-Cyclopropyl-5-(7-((3S,4R)-3-hydroxytetrahydro-2H-pyran-4-yl)-7H-pyrrolo[2,3-b]pyridin-3-yl)-7-(methylamino)pyrazolo[1,5-a]pyrimidine-3-carboxamide]
< 0.1 µM	< 0.2 nM		CNc1cc(-c2cnc3n([C@@H]4COC[C@H]4O)cccc2-3)nc2c(C(=O)NC3CC3)cnn12 [Compound I-817]
< 0.1 µM	< 0.2 nM		CC(C)n1cc(-c2nc3c(C(=O)N[C@H]4CC[C@H]4O)cnn3c3c2OCCN3)c2cccnc21 [Compound I-754]
0.5 to 1 µM	< 0.2 nM		CNc1cc(-c2cnc3n(CC(=O)N4CCOCC4)cccc2-3)nc2c(C(=O)NC3CC[C@@H]3OC)cnn12 (some centres unmarked) [Compound I-962]
	< 0.2 nM	< 0.1 µM	CNc1cc(-c2cnc3n(C4CCOCC4)cccc2-3)nc2c(C(=O)NC3CC[C@@H]3OC)cnn12 (stereo in doubt) [Compound I-985, N-(2-methoxycyclobutyl)-7-(methylamino)-5-(7-(tetrahydro-2H-pyran-4-yl)-7H-pyrrolo[2,3-b]pyridin-3-yl)pyrazolo[1,5-a]pyrimidine-3-carboxamide]
< 0.1 µM	< 0.2 nM		CNc1cc(-c2cn(C3COC3)c3ncccc23)nc2c(C(=O)N[C@H]3CC[C@@H]3F)cnn12 [Compound I-508]
0.5 to 1 µM	< 0.2 nM		CNc1cc(-c2cnc3n(C4CCOCC4)cccc2-3)nc2c(C(=O)N[C@@H]3CC[C@H]3OC)cnn12 [Compound I-1015]
< 0.1 µM	< 0.2 nM		CNc1cc(-c2cnc3n([C@H]4COC[C@@H]4O)cccc2-3)nc2c(C(=O)NC3CC3)cnn12 [Compound I-816]
< 0.1 µM	< 0.2 nM		CNc1cc(-c2cnc3n(C4CCOCC4)cccc2-3)nc2c(C(=O)N[C@H]3CC[C@@H]3OC)cnn12 [Compound I-1014]
0.1 to 0.5 µM	< 0.2 nM		CNc1cc(Nc2cccn(-c3ccccn3)c2=O)nc2c(C(N)=O)cnn12 [Compound I-119]
< 0.1 µM	< 0.2 nM		CNc1ccc(-c2cc(NC)n3ncc(C(=O)N[C@@H]4CC[C@H]4OC)c3n2)n2ccnc12 [Compound I-490]
< 0.1 µM	< 0.2 nM		O=C(N[C@@H]1CCC1(F)F)c1cnn2c3c(c(Nc4cccn([C@H]5[C@@H]6COC[C@@H]65)c4=O)nc12)OCCN3 [Compound I-769]
< 0.1 µM	< 0.2 nM		CNc1ccc(-c2cc(NC)n3ncc(C(=O)N[C@@H]4C[C@@H]4F)c3n2)n2ccnc12 [Compound I-479]
0.1 to 0.5 µM	< 0.2 nM		CNc1cc(-c2cn([C@@H]3COC[C@H]3O)c3ncccc23)nc2c(C(=O)N[C@@H]3C[C@@H]3F)cnn12 [Compound I-502]
0.1 to 0.5 µM	< 0.2 nM		CNc1cc(-c2cn([C@H]3C[C@@H](O)C3)c3ncccc23)nc2c(C(=O)N[C@@H]3C[C@@H]3F)cnn12 [Compound I-500]
	0.2 to 1 nM	< 0.1 µM	CNc1cc(Nc2cccn(C3CC(F)(F)C3)c2=O)nc2c(C(=O)N[C@H]3CC[C@H](O)C3)cnn12 [Compound I-41, 5-((1-(3,3-Difluorocyclobutyl)-2-oxo-1,2-dihydropyridin-3-yl)amino)-N-((1S,3S)-3-hydroxycyclopentyl)-7-(methylamino)pyrazolo[1,5-a]pyrimidine-3-carboxamide]
